Assay results published in ChEMBL document CHEMBL1671790, “A new β-carbonic anhydrase from Brucella suis, its cloning, characterization, and inhibition with sulfonamides and sulfamates, leading to impaired pathogen growth” (Bioorg Med Chem, 2011).

Legend:
Brucella suis [1] = tested on: Brucella suis
Brucella suis [2] = assay: Ratio of kcat to Km for Brucella suis carbonic anhydrase II
Brucella suis [3] = assay: Ratio of kcat to Km for Brucella suis carbonic anhydrase I
Brucella suis [4] = tested on: Brucella suis; remark: listed apart in the source
Helicobacter pylori [5] = assay: Activity at Helicobacter pylori beta-carbonic anhydrase by spectrophotometry at pH 8.3
Helicobacter pylori [6] = assay: Ratio of kcat to Km for Helicobacter pylori beta-carbonic anhydrase
O=C=O [7] = assay: Ratio of kcat to Km for human carbonic anhydrase II
O=C=O [8] = assay: Activity at human carbonic anhydrase II by spectrophotometry at pH 7.5
O=C=O [9] = conditions: Homo sapiens
O=C=O [10] = assay: Ratio of kcat to Km for human carbonic anhydrase I

Sequence of Carbonic anhydrase 1 (Homo sapiens), P00915 (P00915 whole entry): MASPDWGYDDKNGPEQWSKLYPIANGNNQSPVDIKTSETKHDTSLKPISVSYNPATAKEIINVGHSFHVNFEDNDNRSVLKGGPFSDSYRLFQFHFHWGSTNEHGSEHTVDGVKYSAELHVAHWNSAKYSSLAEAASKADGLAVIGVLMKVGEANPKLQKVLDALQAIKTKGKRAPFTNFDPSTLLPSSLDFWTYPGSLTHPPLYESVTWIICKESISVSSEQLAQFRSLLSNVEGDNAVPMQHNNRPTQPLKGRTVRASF

O=C=O
kcat (Brucella suis [1]): 1.1 ×10⁶ /s | kcat/Km (Brucella suis [2]): 8.9 ×10⁷ /M/s | kcat/Km (Brucella suis [3]): 3.9 ×10⁷ /M/s | kcat (Brucella suis [4]): 6.4 ×10⁵ /s | kcat (Helicobacter pylori [5]): 7.1 ×10⁵ /s | kcat/Km (Helicobacter pylori [6]): 4.8 ×10⁷ /M/s

Carbonic anhydrase 2 (Homo sapiens) (from UniProt P00918)
kcat/Km (O=C=O [7]): 1.5 ×10⁸ /M/s | kcat (O=C=O [8]): 1.4 ×10⁶ /s

Carbonic anhydrase 1 (Homo sapiens), P00915
kcat (O=C=O [9]): 2 ×10⁵ /s | kcat/Km (O=C=O [10]): 5 ×10⁷ /M/s
